{"source": "patent US9770503B2", "about": "“Immunomodulating compositions and uses therefor” (CANCURE LIMITED ACN 164 438 359, priority 2003, dated 2017)", "data": [{"tested_on": "splenic lymphocytes cultured with C57bl6J derived B16F10 melanoma cells", "experiment": "Mixed lymphocyte culture (MLC) screening assay, melanoma cells as stimulators", "type": "cell-based, mice", "conditions": "3 days of growth; FIG. 4", "excerpt": "The inventor has established a rapid screening assay for analysing the immune-enhancing activities of various lectin-interactive agents. The assay is based on the ability to grow lymphocytes derived from the spleens of vaccinated mice in mixed lymphocyte culture (MLC) in the presence or absence of the agents. The theory behind this approach is that tumour cells secrete galectins which then kill the T lymphocytes.\nTumour cells, either NeuD12 FVB/N 202 breast cancer cells or C57bl6J derived B16F10 melanoma cells were used as stimulators and target cells for the assays. The tumour cells used as stimulators in the MLC were prepared as outlined in WO 01/88097 to express high levels of B7 antigen and were treated with interferon γ (1000 IU/mL) for 24 h before addition of interferon β (1000 IU/mL) for a further 24-48 h. The tumour cells were grown in 35 mm diameter×6 well cell culture dishes at about 1.5×10^6 cells per well. The tumour cells, after IFN treatment, were incubated with the growth arresting drug, mitomycin C for 20-25 min in situ in the 6-well culture dishes before it was removed by washing with PBS or fresh media three times and resuspension in 4 mL of fresh complete RPMI media/10% FCS.\nLymphocytes were extracted from the spleen of vaccinated mice and passed through a 100-200 μm stainless steel mesh sieve into 5-10 mL complete RPMI media. The red blood cells were removed by centrifugation on lymphoprep and the white blood cell layer at the interface between the culture media phase and ficoll/Hypaque phase was harvested and the ficoll/Hypaque removed by washing. […] After 2-3 days, or as required (assessed by the colour of the media pH indicator change), half the media was carefully aspirated away from each well and replaced with fresh complete media with or without added lectin-interacting agent (e.g., a carbohydrate as disclosed for instance herein generally at about 0.1 mM to about 10 mM final concentration, typically at about 1 mM). […]", "values": [{"smiles": "OC[C@H]1O[C@@H](O[C@@H]2[C@@H](CO)OC(O)(CO)[C@H]2O)[C@H](O)[C@@H](O)[C@H]1O", "note": "(mixture of isomers) [lactulose]", "proliferation of lymphocytes in a melanoma-specific MLC": "promoting the proliferation of lymphocytes"}, {"smiles": "OC[C@@H](O)[C@@H](O[C@@H]1O[C@H](CO)[C@H](O)[C@H](O)[C@H]1O)[C@H](O)[C@@H](O)CO", "note": "[D-lactitol monohydrate]", "proliferation of lymphocytes in a melanoma-specific MLC": "promoting the proliferation of lymphocytes"}, {"smiles": "OC[C@H]1O[C@@H](O[C@H]2[C@H](O)[C@@H](O)[C@H](OCc3ccccc3)O[C@@H]2CO)[C@H](O)[C@@H](O)[C@H]1O", "note": "[benzyl 4-O-β-D-galactopyranosyl-β-D-glucopyranoside]", "proliferation of lymphocytes in a melanoma-specific MLC": "promoting the proliferation of lymphocytes"}]}]}
